Data: patent publication US11447495B2, “Substituted benzo[f]imidazo[1,5-a][1,4]diazepines as GABA(a) receptor modulators” (priority 2016, dated 2022)
Like-named read-outs stand apart in the source and are kept apart here.

Tests used:
[1] = Airway hyperresponsiveness (sRaw) to methacholine in ovalbumin asthma model; format: in vivo, ova s/c BALB/c mice; conditions: oral gavage, 100 mg/kg twice daily for 5 days, methacholine challenge
Method: Compounds described herein may reduce airway hyperresponsiveness in animal models of asthma. Therefore, mice may be sensitized three times with intra-peritoneal (i.p.) injections of 2 mg/kg/d of ovalbumin (Ova) emulsified in […] on days 0, 7 and 14 in a total volume of 100 μL. In addition, mice may be challenged intra-nasally (i.n.) with 1 mg/kg/d Ova for 5 days from days 23-27. Control mice may be sensitized with Ova and challenged with saline. The airway hyperresponsiveness measurements may be carried out with DSI's Buxco® FinePointe Non-Invasive Airway Mechanics (NAM) instrument consisting of a nasal chamber in combination with the thoracic chamber that allows the computation of specific airway resistance (sRaw). Treated conscious, spontaneously breathing Ova S/C mice may be exposed to aerosolized phosphate buffered saline (PBS) (for the baseline measurement) or methacholine (1.5625-12.5 mg/mL) for 1 minute and readings (sRaw) may be taken and averaged for 3 minutes after each nebulization.
Drug treatment protocol: Sterile solutions of compounds were prepared in 2% hydroxypropyl methylcellulose solution (Sigma-Aldrich, St. Louis, Mo.) and 2.5% polyethylene glycol (Sigma Aldrich, St. Louis, Mo.) for oral administration in a biological safety cabinet. A fine suspension was obtained by grinding the mixture with a mortar and pestle. Drugs were administered individually at 100 mg/kg by oral gavage (200 ul) with 20G gavage needles (Kent Scientific Corporation, Torrington Conn.) to groups of ova s/c BALB/c twice daily for 5 days during the ova challenge period. Mice received a single p.o. dose of the compounds just before airway parameter measurements. Compounds for i.p. injection were prepared in 10% DMSO, 40% propylene glycol, and 50% PBS and given as 100 ul injection. Mice were monitored daily after drug administration. Assessment of Airway hyper-responsiveness: Airway hyper-responsiveness to methacholine in conscious, spontaneously breathing animals was measured by DSI's Buxco® FinePointe Non-Invasive Airway Mechanics (NAM) instrument. Before measurements were taken, mice were acclimated to the chambers 15 minutes daily for 5 days. In addition, an ovalbumin sensitization and challenge protocol consists of randomized male BALB/c mice that were sensitized three times with intra-peritoneal (i.p.) injections of 2 mg/kg/d of ovalbumin (Ova) (Sigma-Aldrich, St. Louis, Mo.) emulsified in 2 mg of Alum (Imject Alum; Thermo Scientific, Pierce, Rockford, Ill.) on days 0, 7 and 14 in a total volume of 100 μL. The mice were then challenged intra-nasally (i.n.) with 1 mg/kg/d Ova for 5 days from days 23-27. Control mice were sensitized with Ova and challenged with saline. The chambers were also calibrated each time before data collection. Briefly, the nasal chamber in combination with the thoracic chamber allows the computation of specific airway resistance (sRaw). The FinePointe software computes specific airway resistance (sRaw) with all other ventilatory parameters derived by the NAM analyzer. Mice were exposed to aerosolized PBS (for the baseline measurement) or methacholine (1.5625-12.5 mg/mL) for 1 minute and readings were taken and averaged for 3 minutes after each nebulization. Data obtained were presented as sRaw versus the methacholine concentration (mg/mL) used to generate the aerosol. FIG. 5A-5F show compound effects on airway hyperresponsiveness. Specific airway resistance (sRaw) was measured at increasing dosages of methacholine by a DSI's Buxco FinePointe non-invasive airway mechanics instrument. Ova s/c BALB/c mice were administered all compounds via oral gavage, 100 mg/kg twice daily for 5 days. Data represent mean±SEM from 10 mice in each group. *, **, and *** indicate p<0.05, p<0.01, p<0.001 significance, respectively, compared to vehicle treated ova s/c BALB/c mice.

[2] = system: inflammatory cells, eosinophils, CD4+ T cells in BALF; assay: Inflammatory cell numbers in BALF by flow cytometry; format: in vivo, ova s/c BALB/c mice; conditions: 100 mg/kg twice daily for 5 days
Method: The change of the number of specific immune cells caused by compounds may be investigated in the bronchoalveolar lavage fluid (BALF) of Ova S/C mice. Therefore, a bronchoalveolar lavage may be carried out followed by the lysis of red blood cells. Incubation of cell-type specific antibodies with BALF may allow the quantification of leukocytes such as eosinophils and CD4^+ T-lymphocytes using flow cytometry.
Determination of anti-inflammatory properties of compounds were investigated in an allergen induced mouse model of asthma. At the day of analysis, bronchoalveolar lavage (BAL) was performed with 1 mL of Ca2+ and Mg2+ free PBS. Red blood cells (RBCs) were lysed using BD red blood cell lysis buffer (BD Pharmingen, San Jose, Calif.). BALF was split into four different tubes and non-specific binding to Fc receptors was blocked for 5 minutes using 6 μg/mL of 2.4G2 mouse BD Fc Block™ (BD Pharmingen, San Jose, Calif.). BALF cells were stained for 30 minutes at 4° C. in the dark with 100 μL BSA stain buffer (BD Pharmingen, San Jose, Calif.) containing the final concentrations of the following antibodies: anti-mouse CD45 APC (1:1000, 30-F11, Affymetrix eBiosciences, San Diego, Calif.), FITC rat anti-mouse CD4 (1:500, RM4-5, BD Pharmingen, San Jose, Calif.), PE Rat Anti-Mouse Siglec F (1:500, E50-2440, BD Pharmingen, San Jose, Calif.) and mouse CCR3 PE-conjugated antibody (1:40, 83101, R&D systems Inc, Minneapolis, Minn.). Flow cytometric studies were done using the BD FACS Calibur (BD Pharmingen, San Jose, Calif.) and data analyzed subsequently using Cell Quest pro software (BD Pharmingen, San Jose, Calif.). General gating for immune cells were followed. Total inflammatory cell count was obtained by running all samples on high (60 μL/min) for 180 seconds. The gated anti-mouse CD45 positive events in the fourth channel (FL4) were used to calculate the total inflammatory cell count as cells/mL. The frequencies of CCR3+/Siglec F were used for quantification of eosinophils and CD4+ for CD4+ T cell populations in their respective gates were multiplied by the total inflammatory cell count (cells/mL) to obtain the differential cell population. Statistical analysis: Data were analyzed using GraphPad Prism 4 (GraphPad Software, San Diego, Calif.) and expressed as mean±SEM. One-way analysis of variance (ANOVA) with Dunnet post hoc test or two-way ANOVA with Bonferroni post hoc test were performed for statistical difference for multiple groups. FIGS. 7A-7C show effects of compounds on inflammatory cells. Groups of 10 ova s/c BALB/c mice were administered compounds at 100 mg/kg twice daily for 5 days. BALF was harvested from each animal and used for (A) quantification of total inflammatory cells; (B) eosinophils; (C) CD4^+ T cells. Cells were stained with mouse CD45^+ APC antibody, and samples were analyzed with BD FACS Calibur on high flow rate (60 μl/minute) for 180 seconds. The gated positive events in the fourth channel (FL4) were used to calculate the total inflammatory cell count as cells/ml. Quantification of specific leukocyte population (B) eosinophils (C) CD4^+ T cell populations were stained with specific antibodies and detected by flow cytometry. Data represent mean±SEM from 10 mice in each group. *, **, and *** indicate p<0.05, p<0.01, and p<0.001 significance, respectively, compared to vehicle treated ova s/c BALB/c mice.

HEPG2 = assay: Cytotoxicity, liver cells; format: cell-based, human
HEK293 = assay: Cytotoxicity, CellTiter-Glo cell viability assay, kidney cells; format: cell-based, human
Method: The cytotoxicity of compounds may be evaluated by treating HEK293 human embryonic kidney cells with increasing concentrations of compounds for 24-48 hours followed by the quantification of living cells using Cell-Titer Glo (Promega).
Compounds with increased cytotoxicity can be identified using an in vitro cytotoxicity assay. Therefore, human embryonic kidney 293T (HEK293T) cell lines were purchased (ATCC) and cultured in 75 cm2 flasks (CellStar). Cells were grown in DMEM/High Glucose (Hyclone, #SH3024301) media to which non-essential amino acids (Hyclone, #SH30238.01), 10 mM HEPES (Hyclone, #SH302237.01), 5×106 units of penicillin and streptomycin (Hyclone, #SV30010), and 10% of heat inactivated fetal bovine serum (Gibco, #10082147) were added. Cells were harvested using 0.05% Trypsin (Hyclone, #SH3023601). The cell viability assay was evaluated using CellTiter-Glo™ Luminescent Cell Viability Assay Kit (Promega, Madison, Wis.), which contains luciferase and all its substrate except ATP. The controls for the cytotoxicity assay used were (E)-10-(bromotriphenylphosphoranyl)decyl 4-(4-(tert-butyl)phenyl)-4-oxobut-2-enoate (400 μM in DMSO, positive control) and DMSO (negative control). All luminescence readings were performed on a Tecan Infinite M1000 plate reader. Small volume transfers were performed on the Tecan Freedom EVO liquid handling system with a 100 nL pin tool transfer (V&P Scientific). Serial dilutions were done in 96-well polypropylene plates (Corning, #3365) and assays were conducted in 384-well white optical bottom plates. The assays were carried out in quadruplet in three independent runs. The data were normalized to the controls and if possible analyzed by nonlinear regression (GraphPad Prism).

[3] = Microsomal stability, mouse liver microsomes; format: in vitro ADME; conditions: 10 μM compound
Method: (§1) The metabolic stability of compounds in vivo can be estimated with the stability of compounds in the presence of liver microsomes. Therefore, 4 μL of 1 mM DMSO solution of test compound at a final concentration of 10 μM were preincubated at 37° C. for 5 minutes on a digital heating shaking dry bath (Fischer scientific, Pittsburgh, Pa.) in a mixture containing 282 μL of water, 80 μL of phosphate buffer (0.5 M, pH 7.4) 20 μL of NADPH Regenerating System Solution A (BD Bioscience, San Jose, Calif.) and 4 μL of NADPH Regenerating System Solution B (BD Bioscience, San Jose, Calif.) in a total volume of 391.2 μL. Following preincubation, the reaction was initiated by addition of 8.8 μL of either human liver microsomes (BD Gentest, San Jose, Calif.) or mouse liver microsomes (Life technologies, Rockford, Ill.) at a protein concentration of 0.5 mg/mL. Aliquots of 50 μL were taken at time intervals of 0 (without microsomes), 10, 20, 30, 40, 50 and 60 minutes. Each aliquot was added to 100 μL of cold acetonitrile solution containing 1 μM of verapamil HCL as internal standard. This was followed by sonication for 10 seconds and centrifugation at 10,000 rpm for 5 minutes. 100 μL of the supernatant was transferred into Spin-X HPLC filter tubes (Corning Incorporated, NY) and centrifuged at 13,000 rpm for 5 minutes. The filtrate was diluted 100-fold and subsequently analyzed by LC-MS/MS with Shimadzu LCMS 8040, (Shimadzu Scientific Instruments, Columbia, Md.). The ratio of the peak areas of the internal standard and test compound was calculated for every time point and the natural log of the ratio were plotted against time to determine the linear slope (k). The metabolic rate (k*C0/C), half-life (0.693/k), and […] (V*k) were calculated, where k is the slope, C0 is the initial concentration of test compound, C is the concentration of microsomes, and V is the volume of incubation in μL per microsomal protein in mg. All experiments were repeated two time in triplicates.

[4] = Microsomal stability, human liver microsomes; format: in vitro ADME; conditions: 10 μM compound
Method: as §1

[5] = system: guinea pig airway smooth muscle; assay: Relaxation of substance P contracted guinea pig tracheal rings; parameters: dose or concentration left out as unconfirmed
[6] = Pharmacokinetic analysis in blood, lungs and brain; conditions: mouse, 25 mg/kg oral gavage

SMILES	airway hyperresponsiveness (sRaw) [1]	numbers of inflammatory cells in BALF [2]	MLM % remaining after 60 min [3]	HLM % remaining after 60 min [4]	also measured
C[C@H]1N=C(c2ccccc2F)c2cc(C3CC3)ccc2-n2cnc(C(=O)O)c21 [GL-III-43, (R)-8-cyclopropyl-6-(2-fluorophenyl)-4-methyl-4H-benzo[f]imidazo[1,5-a][1,4]diazepine-3-carboxylic acid]	not able to alleviate airway hyperresponsiveness	did not modulate the numbers of inflammatory cells			
CC(C)(C)OC(=O)c1ncn2c1[C@@H]1CCCN1C(=O)c1cc(O)ccc1-2 [RJ-02-67, tert-butyl (S)-7-hydroxy-9-oxo-11,12,13,13a-tetrahydro-9H-benzo[e]imidazo[5,1-c]pyrrolo[1,2-a][1,4]diazepine-1-carboxylate]			46.6 ± 0.3%	90.6 ± 0.2%	LD50 HEPG2 (Liver) (HEPG2; human, HepG2 liver cells): >400 µM; LD50 HEK293 (Kidney) (HEK293; human, HEK293 (HEK293T) human embryonic kidney cells): >400 µM
COc1ccc2c(c1)C(=O)N1CCC[C@H]1c1c(-c3nnn[nH]3)ncn1-2 [RJ-03-57, (S)-7-methoxy-1-(1H-tetrazol-5-yl)-11,12,13,13a-tetrahydro-9H-benzo[e]imidazo[5,1-c]pyrrolo[1,2-a][1,4]diazepin-9-one]	not able to alleviate airway hyperresponsiveness		98.3 ± 0.2%	94.3 ± 0.1%	LD50 HEPG2 (Liver) (HEPG2): >200 µM; LD50 HEK293 (Kidney) (HEK293): >200 µM; airway smooth muscle contractile force, guinea pig tracheal rings [5]: All investigated compounds except RJ-03-57 reduced the constriction of airway smooth muscle; absorption [6]: moderate absorption; clearance [6]: fast clearance
O=C(O)c1ncn2c1[C@@H]1CCCN1C(=O)c1cc(O)ccc1-2 [RJ-03-90, (S)-7-hydroxy-9-oxo-11,12,13,13a-tetrahydro-9H-benzo[e]imidazo[5,1-c]pyrrolo[1,2-a][1,4]diazepine-1-carboxylic acid]		did not modulate the numbers of inflammatory cells			
